Assay results from publication PMC4522657, “Identification of a DYRK1A Inhibitor that Induces Degradation of the Target Kinase using Co-chaperone CDC37 fused with Luciferase nanoKAZ” (Scientific Reports, 2015).

Columns and labels:
EGFR(T790M) = target: T1, EGFR(T790M) (Homo sapiens, UniProt P00533, T790M); assay: Kinase panel, CaNDY 1 µM; format: biochemical; conditions: CaNDY 1 µM relative to DMSO
T1 construct: purchased Carna Biosciences

EGFR(T790M/L858R) = target: T2, EGFR(T790M/L858R) (Homo sapiens, UniProt P00533, L858R/T790M); assay: Kinase panel, CaNDY 1 µM; format: biochemical; conditions: CaNDY 1 µM relative to DMSO
T2 construct: purchased Carna Biosciences

KDR = target: T3, KDR (Homo sapiens, UniProt P35968); assay: Kinase panel, CaNDY 1 µM; format: biochemical; conditions: CaNDY 1 µM relative to DMSO
T3 construct: purchased Carna Biosciences

PDGFRα(T674I) = target: T4, PDGFRα(T674I) (Homo sapiens, UniProt P16234, T674I); assay: Kinase panel, CaNDY 1 µM; format: biochemical; conditions: CaNDY 1 µM relative to DMSO
T4 construct: purchased Carna Biosciences

TYK2 = target: T5, TYK2 (Homo sapiens, UniProt P29597); assay: Kinase panel, CaNDY 1 µM; format: biochemical; conditions: CaNDY 1 µM relative to DMSO
T5 construct: purchased Carna Biosciences

Erk1 = target: T6, Erk1 (Homo sapiens, UniProt P27361); assay: Kinase panel, CaNDY 1 µM; format: biochemical; conditions: CaNDY 1 µM relative to DMSO
T6 construct: purchased Carna Biosciences

GSK3α = target: T7, GSK3α (Homo sapiens, UniProt P49840); assay: Kinase panel, CaNDY 1 µM; format: biochemical; conditions: CaNDY 1 µM relative to DMSO
T7 construct: purchased Carna Biosciences

IRAK4 = target: T8, IRAK4 (Homo sapiens, UniProt Q9NWZ3); assay: Kinase panel, CaNDY 1 µM; format: biochemical; conditions: CaNDY 1 µM relative to DMSO
T8 construct: purchased Carna Biosciences

MLK1_Cascade = target: T9, MLK1_Cascade (Homo sapiens, UniProt P80192); assay: Kinase panel, CaNDY 1 µM; format: biochemical; conditions: CaNDY 1 µM relative to DMSO
T9 construct: purchased Carna Biosciences

p70S6K = target: T10, p70S6K (Homo sapiens, UniProt P23443); assay: Kinase panel, CaNDY 1 µM; format: biochemical; conditions: CaNDY 1 µM relative to DMSO
T10 construct: purchased Carna Biosciences

PBK = target: T11, PBK (Homo sapiens, UniProt Q96KB5); assay: Kinase panel, CaNDY 1 µM; format: biochemical; conditions: CaNDY 1 µM relative to DMSO
T11 construct: purchased Carna Biosciences

PHKG1 = target: T12, PHKG1 (Homo sapiens, UniProt Q16816); assay: Kinase panel, CaNDY 1 µM; format: biochemical; conditions: CaNDY 1 µM relative to DMSO
T12 construct: purchased Carna Biosciences

DYRK1A = DYRK1A (Homo sapiens, UniProt Q13627); assay: Kinase panel, CaNDY 1 µM; format: biochemical; design: purchased Carna Biosciences
Text: (§1) Detailed information on the assay conditions is available on the website of Carna Biosciences (http://www.carnabio.com/english/index.html; Kobe, Japan). In brief, full-length human recombinant kinases were expressed using a baculovirus expression system as amino-terminal GST-fusion proteins, and purified by glutathione-Sepharose chromatography. The GenBank accession numbers of DYRK1A, DYRK1B, DYRK2, and DYRK3 were NP_001387.2, NP_004705.1, NP_003574.1, and NP_003573.2. Kinase activities were evaluated by Off-chip Mobility Shift Assay after reaction of 1 μM of the substrate DYRKtide-F with ATP (25 μM for DYRK1A, 50 μM for DYRK1B, 10 μM for DYRK2, and 5 μM for DYRK3). For each compound, a DMSO solution was diluted in assay buffer to yield a final concentration of 1% DMSO. After incubation for one hour at room temperature, substrate phosphorylation was analyzed by electrophoretic separation of the substrate and products using a Caliper LC3000 platform (Caliper Life Sciences, Mountain View, CA, USA). The phosphorylated product (P)/(P + substrate) ratio was calculated at each concentration of each small molecule and the percent inhibition was expressed relative to a control assay in the absence of the small molecule. […] The IC50 of each compound was calculated by interpolation on a log-concentration-response curve fitted with a four-parameter logistic equation.
(§2) All kinase assays were carried out at Carna Biosciences. The inhibitory map was made with Kinome Render[36].

DYRK1B = DYRK1B (Homo sapiens, UniProt Q9Y463); assay: Kinase panel, CaNDY 1 µM; format: biochemical; design: purchased Carna Biosciences
Text: as §1, §2

Haspin [1] = target: T13, Haspin (Homo sapiens, UniProt Q8TF76); assay: Kinase panel, CaNDY 1 µM; format: biochemical; design: purchased Carna Biosciences
T13 sequence (Q8TF76 1-798): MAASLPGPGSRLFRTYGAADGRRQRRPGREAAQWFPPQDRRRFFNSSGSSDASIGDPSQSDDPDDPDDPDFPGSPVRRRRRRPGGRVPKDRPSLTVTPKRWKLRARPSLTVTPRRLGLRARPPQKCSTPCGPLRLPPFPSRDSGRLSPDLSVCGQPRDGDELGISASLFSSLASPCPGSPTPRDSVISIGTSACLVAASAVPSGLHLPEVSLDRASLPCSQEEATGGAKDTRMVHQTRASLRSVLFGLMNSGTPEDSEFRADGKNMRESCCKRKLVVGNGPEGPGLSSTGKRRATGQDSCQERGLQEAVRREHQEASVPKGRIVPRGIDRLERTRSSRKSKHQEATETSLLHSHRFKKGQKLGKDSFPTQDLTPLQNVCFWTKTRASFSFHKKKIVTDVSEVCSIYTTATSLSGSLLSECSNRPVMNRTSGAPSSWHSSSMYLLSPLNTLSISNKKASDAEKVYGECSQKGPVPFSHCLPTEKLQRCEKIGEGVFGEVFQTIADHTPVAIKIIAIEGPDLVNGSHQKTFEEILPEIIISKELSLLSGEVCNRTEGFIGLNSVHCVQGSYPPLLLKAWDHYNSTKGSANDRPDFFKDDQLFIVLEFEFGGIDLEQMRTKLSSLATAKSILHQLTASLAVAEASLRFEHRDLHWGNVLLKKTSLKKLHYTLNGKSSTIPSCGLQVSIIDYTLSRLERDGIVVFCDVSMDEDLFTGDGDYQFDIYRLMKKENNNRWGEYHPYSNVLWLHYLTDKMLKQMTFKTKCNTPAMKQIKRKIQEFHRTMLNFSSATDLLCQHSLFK
Text: as §1, §2

Haspin [2] = target: T13, Haspin; assay: Western blot of target kinase expression in HEK293 cells; format: cell-based; design: endogenous in cells; host or cells: HEK293; conditions: CaNDY 2 μM, 4 days
Protocol: To check selectivity of CaNDY for other kinases, we first examined protein expression of several kinases in HEK293 cells treated with CaNDY (2 μM) for 4 days. […] Third, protein expression of these kinases targeted by CaNDY (DYRK1A, DYRK1B, CLK1, and Haspin) was reassessed by Western blot analysis as performed in Fig. 7b.
Western blot analysis was performed using the antibodies described above. In brief, total cell lysates were separated by SDS-PAGE (5–20% gels; ATTO, Tokyo, Japan) under reducing conditions and then transferred to a PVDF membrane (PALL, SP, Brazil). Antibody reactions were performed with Can Get Signal® Immunoreaction Enhancer Solution (Toyobo). Peroxidase activities on the membrane were visualized with ECL Western Blotting Detection Reagents (GE Healthcare) or ImmunoStar® LD (Wako Pure Chemical Industries, Osaka, Japan), and a ChemiDoc^TM MP Imaging System (Bio-Rad, Hercules, CA, USA).

[3] = 1 μM CaNDY, read-out: percentage inhibition

Chain of DYRK1B (Q9Y463 whole entry): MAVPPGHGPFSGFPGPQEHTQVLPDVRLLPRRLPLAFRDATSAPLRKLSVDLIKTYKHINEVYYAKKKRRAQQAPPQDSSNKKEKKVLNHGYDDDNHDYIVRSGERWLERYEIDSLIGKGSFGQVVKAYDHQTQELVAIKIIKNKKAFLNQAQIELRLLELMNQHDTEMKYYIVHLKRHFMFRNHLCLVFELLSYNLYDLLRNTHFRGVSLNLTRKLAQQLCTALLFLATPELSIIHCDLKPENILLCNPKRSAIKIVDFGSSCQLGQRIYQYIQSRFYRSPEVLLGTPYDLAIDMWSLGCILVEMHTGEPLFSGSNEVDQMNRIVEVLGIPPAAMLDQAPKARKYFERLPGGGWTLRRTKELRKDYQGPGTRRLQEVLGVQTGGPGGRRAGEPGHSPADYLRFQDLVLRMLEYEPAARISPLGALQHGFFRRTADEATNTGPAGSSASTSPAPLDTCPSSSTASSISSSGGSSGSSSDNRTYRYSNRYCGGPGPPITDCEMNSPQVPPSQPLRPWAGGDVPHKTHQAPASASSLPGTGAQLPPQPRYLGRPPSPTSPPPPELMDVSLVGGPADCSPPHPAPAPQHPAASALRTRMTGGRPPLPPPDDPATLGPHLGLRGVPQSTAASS
T9 sequence (P80192 whole entry): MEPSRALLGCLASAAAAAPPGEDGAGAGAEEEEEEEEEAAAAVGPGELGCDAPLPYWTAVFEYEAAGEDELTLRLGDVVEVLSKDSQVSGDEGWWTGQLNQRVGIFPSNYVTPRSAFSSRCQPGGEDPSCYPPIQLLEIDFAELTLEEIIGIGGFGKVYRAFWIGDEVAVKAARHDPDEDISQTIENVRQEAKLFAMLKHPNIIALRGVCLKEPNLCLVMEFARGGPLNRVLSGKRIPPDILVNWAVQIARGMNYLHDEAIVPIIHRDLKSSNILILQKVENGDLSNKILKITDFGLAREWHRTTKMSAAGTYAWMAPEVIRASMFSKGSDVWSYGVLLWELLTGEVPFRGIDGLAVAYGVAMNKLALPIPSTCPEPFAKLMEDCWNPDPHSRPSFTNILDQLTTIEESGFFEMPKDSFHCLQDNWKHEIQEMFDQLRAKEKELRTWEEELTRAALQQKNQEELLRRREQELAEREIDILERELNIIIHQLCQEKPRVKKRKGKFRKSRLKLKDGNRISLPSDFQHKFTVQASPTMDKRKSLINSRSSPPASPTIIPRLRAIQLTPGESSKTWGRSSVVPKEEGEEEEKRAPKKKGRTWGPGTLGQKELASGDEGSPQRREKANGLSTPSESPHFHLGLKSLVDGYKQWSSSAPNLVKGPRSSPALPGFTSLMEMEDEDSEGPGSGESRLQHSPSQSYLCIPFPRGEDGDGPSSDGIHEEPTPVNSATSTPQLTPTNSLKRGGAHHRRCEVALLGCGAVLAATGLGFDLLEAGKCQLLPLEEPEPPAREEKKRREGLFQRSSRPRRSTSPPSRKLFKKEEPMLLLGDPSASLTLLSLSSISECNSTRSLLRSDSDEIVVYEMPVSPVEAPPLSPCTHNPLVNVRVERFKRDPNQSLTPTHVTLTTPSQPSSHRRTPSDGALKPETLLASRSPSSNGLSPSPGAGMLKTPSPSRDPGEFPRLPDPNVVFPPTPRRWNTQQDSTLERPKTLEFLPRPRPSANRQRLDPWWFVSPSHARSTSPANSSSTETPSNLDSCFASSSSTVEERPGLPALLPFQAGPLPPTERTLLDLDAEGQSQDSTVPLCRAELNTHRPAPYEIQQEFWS
T12 sequence (Q16816 whole entry): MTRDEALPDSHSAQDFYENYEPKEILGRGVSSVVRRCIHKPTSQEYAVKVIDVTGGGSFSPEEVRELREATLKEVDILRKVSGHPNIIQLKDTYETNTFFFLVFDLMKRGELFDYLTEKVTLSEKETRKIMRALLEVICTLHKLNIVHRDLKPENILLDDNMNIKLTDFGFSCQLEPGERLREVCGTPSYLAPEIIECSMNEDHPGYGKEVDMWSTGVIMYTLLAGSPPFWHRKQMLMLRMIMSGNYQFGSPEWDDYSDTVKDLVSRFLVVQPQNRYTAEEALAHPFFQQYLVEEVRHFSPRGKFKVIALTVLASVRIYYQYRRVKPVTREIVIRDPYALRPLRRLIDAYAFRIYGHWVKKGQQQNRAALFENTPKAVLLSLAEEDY
T11 sequence (Q96KB5 whole entry): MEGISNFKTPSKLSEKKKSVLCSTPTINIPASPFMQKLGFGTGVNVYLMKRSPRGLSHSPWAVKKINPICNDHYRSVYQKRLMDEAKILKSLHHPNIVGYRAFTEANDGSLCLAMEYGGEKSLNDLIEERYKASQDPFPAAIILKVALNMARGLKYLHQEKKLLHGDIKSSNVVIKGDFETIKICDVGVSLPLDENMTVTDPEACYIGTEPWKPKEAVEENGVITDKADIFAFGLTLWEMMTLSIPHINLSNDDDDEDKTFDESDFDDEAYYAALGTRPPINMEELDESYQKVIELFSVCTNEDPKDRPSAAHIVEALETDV
T3 sequence (P35968 20-1356): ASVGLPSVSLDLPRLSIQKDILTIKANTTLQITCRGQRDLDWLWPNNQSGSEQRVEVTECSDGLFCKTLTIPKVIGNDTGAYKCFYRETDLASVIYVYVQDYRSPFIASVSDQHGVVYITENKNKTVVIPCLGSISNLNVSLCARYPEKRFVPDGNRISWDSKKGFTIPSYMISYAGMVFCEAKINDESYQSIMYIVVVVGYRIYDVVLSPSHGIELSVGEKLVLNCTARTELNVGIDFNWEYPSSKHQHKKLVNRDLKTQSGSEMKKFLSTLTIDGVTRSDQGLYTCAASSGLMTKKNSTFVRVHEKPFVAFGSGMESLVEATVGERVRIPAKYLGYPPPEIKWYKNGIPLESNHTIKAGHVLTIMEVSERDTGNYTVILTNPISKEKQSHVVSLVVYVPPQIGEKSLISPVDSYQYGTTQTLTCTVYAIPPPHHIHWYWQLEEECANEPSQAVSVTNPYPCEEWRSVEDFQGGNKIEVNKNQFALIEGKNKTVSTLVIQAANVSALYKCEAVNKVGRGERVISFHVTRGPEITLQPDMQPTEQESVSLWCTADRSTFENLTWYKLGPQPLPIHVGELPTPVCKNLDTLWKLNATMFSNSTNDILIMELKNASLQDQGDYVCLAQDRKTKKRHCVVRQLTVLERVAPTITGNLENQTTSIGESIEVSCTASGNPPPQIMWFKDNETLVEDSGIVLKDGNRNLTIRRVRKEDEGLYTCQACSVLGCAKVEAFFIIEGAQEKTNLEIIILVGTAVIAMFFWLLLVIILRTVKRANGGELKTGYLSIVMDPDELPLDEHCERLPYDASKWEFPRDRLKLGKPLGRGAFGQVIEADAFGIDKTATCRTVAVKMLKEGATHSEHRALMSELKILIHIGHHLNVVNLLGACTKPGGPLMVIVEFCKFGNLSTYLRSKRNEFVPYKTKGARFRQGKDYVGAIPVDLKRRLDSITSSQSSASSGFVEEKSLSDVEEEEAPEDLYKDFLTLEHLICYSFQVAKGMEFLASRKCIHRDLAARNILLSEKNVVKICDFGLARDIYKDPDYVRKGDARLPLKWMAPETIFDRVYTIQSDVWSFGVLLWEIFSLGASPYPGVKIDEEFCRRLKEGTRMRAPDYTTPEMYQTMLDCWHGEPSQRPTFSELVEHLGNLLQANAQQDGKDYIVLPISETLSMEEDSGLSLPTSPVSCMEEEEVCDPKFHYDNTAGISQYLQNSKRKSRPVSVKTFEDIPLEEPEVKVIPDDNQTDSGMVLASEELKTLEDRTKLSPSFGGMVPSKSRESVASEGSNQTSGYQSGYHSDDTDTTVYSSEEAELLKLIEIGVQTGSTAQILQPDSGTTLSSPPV
T10 sequence (P23443 whole entry): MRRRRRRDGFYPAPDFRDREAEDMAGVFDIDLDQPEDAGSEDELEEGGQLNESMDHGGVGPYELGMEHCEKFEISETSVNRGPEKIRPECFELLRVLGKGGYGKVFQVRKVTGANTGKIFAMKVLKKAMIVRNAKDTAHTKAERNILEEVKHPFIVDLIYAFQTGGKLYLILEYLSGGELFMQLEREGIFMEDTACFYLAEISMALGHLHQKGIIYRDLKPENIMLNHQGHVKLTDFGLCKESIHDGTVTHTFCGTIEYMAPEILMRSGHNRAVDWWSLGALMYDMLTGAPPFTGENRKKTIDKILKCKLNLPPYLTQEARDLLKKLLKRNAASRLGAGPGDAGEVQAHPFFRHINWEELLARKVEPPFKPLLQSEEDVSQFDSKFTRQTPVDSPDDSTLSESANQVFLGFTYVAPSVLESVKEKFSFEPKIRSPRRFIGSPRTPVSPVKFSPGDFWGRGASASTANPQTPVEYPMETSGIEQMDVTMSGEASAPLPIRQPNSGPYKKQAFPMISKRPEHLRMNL
T8 sequence (Q9NWZ3 whole entry): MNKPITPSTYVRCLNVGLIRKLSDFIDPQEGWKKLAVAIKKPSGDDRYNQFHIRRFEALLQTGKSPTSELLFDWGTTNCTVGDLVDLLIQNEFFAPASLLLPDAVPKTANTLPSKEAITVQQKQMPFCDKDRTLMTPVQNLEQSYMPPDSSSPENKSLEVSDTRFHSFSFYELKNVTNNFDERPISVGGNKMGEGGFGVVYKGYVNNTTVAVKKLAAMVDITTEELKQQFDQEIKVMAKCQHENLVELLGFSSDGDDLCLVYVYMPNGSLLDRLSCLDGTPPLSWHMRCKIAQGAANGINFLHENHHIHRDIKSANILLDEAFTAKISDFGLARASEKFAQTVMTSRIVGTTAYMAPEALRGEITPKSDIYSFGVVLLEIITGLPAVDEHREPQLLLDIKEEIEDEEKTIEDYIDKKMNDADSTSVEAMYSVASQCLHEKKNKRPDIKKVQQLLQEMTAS

`[H]/N=C1/NC(=O)C(=Cc2ccc3c(c2)CCO3)S1` [CaNDY, (Z)-5-[(2,3-dihydrobenzofuran-5-yl)methylene]-2-iminothiazolidin-4-one] was tested, and the “%Activity” value (EGFR(T790M)) was 107.5%, the “%Activity” value (EGFR(T790M/L858R)) was 106.6% and the remaining activity at 1 µM (KDR) was 102%. For the same compound, the remaining activity at 1 µM (PDGFRα(T674I)) was 94%, the “%Activity” value (TYK2) was 97.4% and the remaining activity at 1 µM (Erk1) was 96.2%. For the same compound, the remaining activity at 1 µM (GSK3α) was 76.6%, the “%Activity” value (IRAK4) was 100.8% and the remaining activity at 1 µM (MLK1_Cascade) was 99.9%. It also gave a remaining activity at 1 µM (p70S6K) of 89.7%, a remaining activity at 1 µM (PBK) of 98.4% and a remaining activity at 1 µM (PHKG1) of 92.1%. For the same compound, the inhibition at 1 µM (DYRK1A; [3]) was greater than 90%, the remaining activity at 1 µM (DYRK1A; CaNDY 1 µM relative to DMSO) was 0.9% and the inhibition at 1 µM (DYRK1B; [3]) was greater than 90%. For the same compound, the remaining activity at 1 µM (DYRK1B; CaNDY 1 µM relative to DMSO) was 3.7%, the inhibition at 1 µM (Haspin [1]; [3]) was greater than 90% and the remaining activity at 1 µM (Haspin [1]; CaNDY 1 µM relative to DMSO) was 3.8%. The “protein expression of Haspin” value (Haspin [2]) was “decreased expression”.
